{"source": "patent US20200055871A1", "about": "“ACTIVATORS OF THE RETINOIC ACID INDUCIBLE GENE \"RIG-I\" PATHWAY AND METHODS OF USE THEREOF” (Kineta Immuno-Oncology LLC, priority 2018, published 2020)", "key": {"[1]": {"test_system": "IRF3-deficient THP1-Lucia™ ISG IRF3−/− cells", "assay": "THP1-Lucia ISG IRF3−/− reporter assay (IRF3-deficient control cells)", "assay_type": "cell-based, human", "conditions": "compound 5 to 20 μM, 18 h", "protocol": "The promoter was comprised of five IFN-stimulated response elements (ISRE) fused to an ISG54 minimal promoter which is unresponsive to NF-kB or AP-1 pathways. […] The IRF3-deficient THP1-Lucia™ ISG IRF3−/−reporter cell line was generated by CRISPR technology from the parent THP1-Lucia™ ISG reporter cell line.\nTHP1-Lucia™ ISG cells and IRF3-deficient THP1-Lucia™ ISG IRF3−/−cells were differentiated with PMA (100 ng/ml) and stimulated with compounds at the indicated concentrations (5 to 20 μM), positive control, or not treated (background). Luciferase secretion was quantified using the QUANTI-Luc luciferase assay system (InvivoGen) 18 h after stimulation. Data are shown as fold increase luciferase activity over background in Table 7 and represent the IRF3-dependent ISG54 promoter activity by the THP1-Lucia™ ISG cells in response to compounds. […] The fold increase of compounds (10 μM, *20 μM, **5 μM) induced IRF3 dependent luciferase activity is indicated as follows: “≠” indicates less than 2.4 fold increase; “+” indicates a 2.4-4.9 fold increase; “++” indicates a 5-9.9 fold increase; “+++” indicates a 10-19 fold increase; “++++” indicates a 20-39 fold increase; “+++++” indicates greater than or equal to 40 fold increase."}, "[2]": {"test_system": "murine CT26 colon carcinoma cells", "assay": "Compound-induced immunogenic cell death: apoptosis (Annexin V) and calreticulin translocation by flow cytometry", "assay_type": "cell-based", "conditions": "18 h after treatment, dose titration, FIG. 1", "protocol": "To determine if the RIG-I agonist compounds induce immunogenic cell death in cancer cells, induction of apoptosis and the translocation of calreticulin (CRT) to the cell surface in murine CT26 colon carcinoma cells were evaluated. The translocation of CRT occurs as part of a specific RIG-I dependent danger-signaling system, and the presence of CRT on the cell membrane promotes tumor antigen uptake by the dendritic cells and leads to the induction of an antigen-specific T cell response\nThe induction of apoptosis and the CRT translocation were measured by flow cytometry. […] Cells were harvested 18 h after treatment and then prepared for flow cytometry using an Annexin V staining kit (Biolegend) for quantification of apoptosis, an anti-CRT antibody (Abgent) for calreticulin translocation, and the Live/Dead-Violet staining kit (Thermofisher) for cell viability. Induction of apoptosis and translocation of calreticulin (CRT) to cell surface by live cells was determined by tri-color flow cytometry using FITC-labeled Annexin V, Live/Dead-iolet (LDV), and APC-anti-CRT. Apoptotic cells were defined as Annexin V^+ and calreticulin translocation to cell surface was quantified by mean fluorescent intensity (MFI) of calreticulin^+ live cells (CRT^+ LDV^−). […]"}, "[3]": {"test_system": "RIG-I deficient CT26 RIG-I−/− cells", "assay": "CXCL10 secretion by RIG-I deficient CT26 RIG-I−/− cells (ELISA); also: key: −: about 0 pg/mL of CXCL10, or below the level of quantitation", "assay_type": "cell-based, murine", "conditions": "compound 5 to 20 μM, 24 h", "procedure,_shortened": "(§1)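 CT26 murine colon carcinoma cells, parental or CRISPR RIG-I−/−, seeded and grown 24 hr at 37° C, then treated with compounds at 10 μM, or at 5 or 20 μM for some. Secreted CXCL10 measured by ELISA in supernatants 24 h after treatment and reported in pg/mL bands.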"}, "[4]": {"test_system": "murine CT26 colon carcinoma cells", "assay": "RIG-I dependent CXCL10 secretion by CT26 cells (ELISA)", "assay_type": "cell-based", "conditions": "10 μM compound, supernatant 24 h after stimulation", "procedure,_shortened": "as §1"}, "[5]": {"test_system": "IRF3 signaling pathway in THP1-Lucia™ ISG cells", "assay": "THP1-Lucia ISG reporter assay: induction of IRF3-dependent gene expression (secreted luciferase)", "assay_type": "cell-based, human", "conditions": "10 μM compound, PMA-differentiated cells, 18 h after stimulation", "procedure,_shortened": "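PMA-differentiated THP-1 reporter cells (ISRE/ISG54 promoter driving secreted luciferase), plus CRISPR IRF3−/− line, treated with compounds at 5–20 μM (mostly 10 μM). Luciferase measured 18 h later; values are fold increase over untreated background, binned from <2.4 to ≥40.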"}}, "data": [{"compound": "N-{5,12-dithia-3-azatricyclo[7.3.0.0^2,^6]dodeca-1,3,6,8,10-pentaen-11-yl}-3-[4-(morpholin-4-yl)butoxy]-[1,1′-biphenyl]-4-carboxamide [Example 62]", "values": [{"measurement": "fold increase of luciferase activity, THP1 ISG IRF3−/−", "setting": "[1]", "result": "− (less than 0.5 fold above baseline was considered below the level of quantitation)"}, {"measurement": "induction of immunogenic cell death (apoptosis, calreticulin translocation to cell surface)", "setting": "[2]", "result": "induction of immunogenic cell death"}, {"measurement": "CXCL10 secretion, CT26 RIG-I−/−", "setting": "[3]", "result": "−"}, {"measurement": "CXCL10 secretion, CT26", "setting": "[4]", "result": "++++ (800 to 1599 pg/mL)"}, {"measurement": "fold increase of IRF3-dependent luciferase activity over background, THP1 ISG", "setting": "[5]", "result": "+++ (a 10-19 fold increase)"}]}, {"compound": "O=C(Nc1cc2ccc3scnc3c2o1)c1cc2ccccc2cc1OCCCCN1CCOCC1", "note": "[Example 56, 3-[4-(morpholin-4-yl)butoxy]-N-{12-oxa-5-thia-3-azatricyclo [7.3.0.0^2,^6]dodeca-1,3,6,8,10-pentaen-11-yl}naphthalene-2-carboxamide]", "values": [{"measurement": "fold increase of luciferase activity, THP1 ISG IRF3−/−", "setting": "[1]", "result": "− (less than 0.5 fold above baseline was considered below the level of quantitation)"}, {"measurement": "CXCL10 secretion, CT26 RIG-I−/−", "setting": "[3]", "result": "−"}, {"measurement": "CXCL10 secretion, CT26", "setting": "[4]", "result": "+++ (400-799 pg/mL)"}, {"measurement": "fold increase of IRF3-dependent luciferase activity over background, THP1 ISG", "setting": "[5]", "result": "+ (a 2.4-4.9 fold increase)"}]}, {"compound": "O=C(Nc1nc2ccc3scnc3c2o1)c1cc2ccccc2cc1OCCN1CCOCC1", "note": "[Example 58, 3-[2-(morpholin-4-yl)ethoxy]-N-{3-oxa-10-thia-5,12-diazatricyclo [7.3.0.0^2,^6]dodeca-1,4,6,8,11-pentaen-4-yl}naphthalene-2-carboxamide]", "values": [{"measurement": "fold increase of luciferase activity, THP1 ISG IRF3−/−", "setting": "[1]", "result": "− (less than 0.5 fold above baseline was considered below the level of quantitation)"}, {"measurement": "CXCL10 secretion, CT26 RIG-I−/−", "setting": "[3]", "result": "−"}, {"measurement": "CXCL10 secretion, CT26", "setting": "[4]", "result": "+ (100-199 pg/mL)"}, {"measurement": "fold increase of IRF3-dependent luciferase activity over background, THP1 ISG", "setting": "[5]", "result": "+ (a 2.4-4.9 fold increase)"}]}]}
